Earlier results in US20250332118A1, “NOVEL ORAL CARE FORMULATIONS FOR TREATMENT OF XEROSTOMIA” (priority 2022, published 2025).

Conditions: @ 79° F.

- Water solubility: 34 % w/v
SMILES: CS(C)(=O)=O [MSM, Methylsulfonylmethane]
